Measured values published in patent publication US20230061736A1, “GPR119 AGONISTS” (Kallyope, Inc., priority 2019, published 2023).
pEC50: −log10 of the molar value.

Molecular target: T1, human GPR119 (hGPR119) (Homo sapiens, UniProt Q8TDV5)
T1 construct: expressed in transfected cells
T1 sequence (Q8TDV5 1-335): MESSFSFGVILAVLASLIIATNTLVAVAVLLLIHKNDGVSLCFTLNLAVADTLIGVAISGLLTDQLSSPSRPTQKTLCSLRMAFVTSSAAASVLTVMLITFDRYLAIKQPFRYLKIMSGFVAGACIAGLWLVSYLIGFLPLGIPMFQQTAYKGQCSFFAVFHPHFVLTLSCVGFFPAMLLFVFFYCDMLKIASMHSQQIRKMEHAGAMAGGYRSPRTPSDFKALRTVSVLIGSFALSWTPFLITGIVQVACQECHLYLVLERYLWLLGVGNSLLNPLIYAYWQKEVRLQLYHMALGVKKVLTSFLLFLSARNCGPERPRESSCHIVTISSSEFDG
Assay: cAMP accumulation assay (cAMP Gs dynamic HTRF kit)
Assay type: cell-based
Conditions: CHO-K1 cells stably expressing hGPR119, 4-parameter fit; for Emax: 1 h, % activity normalized to Max/Min controls; for pEC50: cAMP accumulation
Procedure: CHO-K1 cells stably expressing human GPR119 (hGPR119) were prepared by transfection of a GPR119-carrying plasmid using Lipofectamine 2000 (following manufacturer instructions). A stable cell line was established using the limiting dilution method with geneticine selection. Assay-ready frozen (ARF) cells were prepared and used throughout the study.
The assay was performed in a 384-well plate format using the cAMP Gs dynamic assay kit from Cisbio. ARF cells expressing hGPR119 were thawed, washed and then resuspended in cAMP stimulation buffer at a cell density of 1.1×10^6 cells/mL. Cells were plated at a density of ˜10,000 cells/well (9 μL/well). Dose response curves for the tested compounds were prepared in a cAMP stimulation buffer, containing 0.1% Tween 80 at 4 fold the final concentration. The compounds were then transferred to the cell plates using BRAVO (3 μL/well) and the plates were incubated for 60 minutes at 37° C./5% CO2. Detection buffer (10 μL, prepared as described in the cAMP Gs dynamic kit) were added to each well, and the plates were incubated at ambient temperature for 1 hr.
RT-FRET was measured using a ClarioSTAR plate reader, calculating the ratio between emissions at 665 nm and 620 nm (HTRF ratio). The HTRF ratio for positive (Max) and negative (Min) controls were used to normalize HTRF data and generate values for % activity. EC50 and Max activity values were determined using a standard 4-parameter fit.

| Emax [%] | pEC50 | SMILES |
| --- | --- | --- |
| 100 to 130 | 6.00 to 7.00 | O=C(Cc1ccc(OCCCC2CCN(c3ncc(Cl)cn3)CC2)cc1F)NCCO[C@H]1O[C@H](CO)[C@@H](O)[C@H](O)[C@@H]1O (racemic) [Example 16, 2-[4-[3-[1-(5-chloropyrimidin-2-yl)-4-piperidyl]propoxy]-2-fluoro-phenyl]-N-[2-[rac-(2S,3S,4S,5S,6R)-3,4,5-trihydroxy-6-(hydroxymethyl)tetrahydropyran-2-yl]oxyethyl]acetamide] |
| 100 to 130 | 6.00 to 7.00 | O=C(NCCO[C@H]1O[C@H](CO)[C@@H](O)[C@H](O)[C@@H]1O)C1CN(C(=O)Cc2ccc(OCCCC3CCN(c4ncc(Cl)cn4)CC3)cc2F)C1 (racemic) [Example 31, 1-[2-[4-[3-[1-(5-chloropyrimidin-2-yl)-4-piperidyl]propoxy]-2-fluoro-phenyl]acetyl]-N-[2-[rac-(2S,3S,4S,5S,6R)-3,4,5-trihydroxy-6-(hydroxymethyl)tetrahydropyran-2-yl]oxyethyl]azetidine-3-carboxamide] |
| ≥ 130 | 6.00 to 7.00 | O=C(Cc1ccc(OCCCC2CCN(c3ncc(Cl)cn3)CC2)cc1F)N1CC(CN[C@@H]2C[C@H](O)[C@@H](O)[C@H]2O)C1 (racemic) [Example 49, 2-[4-[3-[1-(5-chloropyrimidin-2-yl)-4-piperidyl]propoxy]-2-fluoro-phenyl]-1-[3-[[[rac-(1R,2S,3R,4S)-2,3,4-trihydroxycyclopentyl]amino]methyl]azetidin-1-yl]ethanone] |
| 100 to 130 | ≥ 7.00 | O=C(Cc1ccc(OCCCC2CCN(c3ncc(Cl)cn3)CC2)cc1F)N1CC(CN2C[C@H](O)[C@@H](O)C2)C1 (stereo in doubt) [Example 46, 2-[4-[3-[1-(5-chloropyrimidin-2-yl)-4-piperidyl]propoxy]-2-fluoro-phenyl]-1-[3-[[rac-(3S,4S)-3,4-dihydroxypyrrolidin-1-yl]methyl]azetidin-1-yl]ethanone] |
| 100 to 130 | ≥ 7.00 | O=C(Cc1ccc(OCCCC2CCN(c3ncc(Cl)cn3)CC2)cc1F)N1CC(CN2C[C@@H](O)[C@H](O)C2)C1 (stereo in doubt) [Example 47, 2-[4-[3-[1-(5-chloropyrimidin-2-yl)-4-piperidyl]propoxy]-2-fluoro-phenyl]-1-[3-[[rac-(3R,4R)-3,4-dihydroxypyrrolidin-1-yl]methyl]azetidin-1-yl]ethanone] |

Further lines, the molecule ahead of its results:

| SMILES | Emax [%] | pEC50 |
| --- | --- | --- |
| COCc1cnc(N2CCC([C@H]3C[C@H]3CCOc3ccc(CC(=O)N4CC(CNC[C@H](O)[C@@H](O)[C@H](O)[C@H](O)CO)C4)c(F)c3)CC2)nc1 (mixture of isomers) [Example 97, 2-[2-fluoro-4-[2-[rac-(1S,2R)-2-[1-[5-(methoxymethyl)pyrimidin-2-yl]-4-piperidyl]cyclopropyl]ethoxy]phenyl]-1-[3-[[[(2S,3R,4R,5R)-2,3,4,5,6-pentahydroxyhexyl]amino]methyl]azetidin-1-yl]ethanone] | 100 to 130 | 6.00 to 7.00 |
| COCc1cnc(N2CCC(CCCOc3ccc(CC(=O)N4CC(C(=O)NC[C@H](O)[C@@H](O)[C@H](O)[C@H](O)CO)C4)c(F)c3)CC2)nc1 (racemic) [Example 39, 1-[2-[2-fluoro-4-[3-[1-[5-(methoxymethyl)pyrimidin-2-yl]-4-piperidyl]propoxy]phenyl]acetyl]-N-[rac-(2S,3R,4R,5R)-2,3,4,5,6-pentahydroxyhexyl]azetidine-3-carboxamide] | 100 to 130 | 6.00 to 7.00 |
| COc1cnc(N2CCC(CCCOc3ccc(CC(=O)N4CC(CNC[C@H](O)[C@@H](O)[C@H](O)[C@H](O)CO)C4)c(F)c3)CC2)nc1 (racemic) [Example 79, 2-[2-fluoro-4-[3-[1-(5-methoxypyrimidin-2-yl)-4-piperidyl]propoxy]phenyl]-1-[3-[[[rac-(2S,3R,4R,5R)-2,3,4,5,6-pentahydroxyhexyl]amino]methyl]azetidin-1-yl]ethanone] | 100 to 130 | 6.00 to 7.00 |
| CCOc1cnc(N2CCC(CCCOc3ccc(CC(=O)N4CC(CNC[C@H](O)[C@@H](O)[C@H](O)[C@H](O)CO)C4)c(F)c3)CC2)nc1 (racemic) [Example 80, 2-[4-[3-[1-(5-ethoxypyrimidin-2-yl)-4-piperidyl]propoxy]-2-fluoro-phenyl]-1-[3-[[[rac-(2S,3R,4R,5R)-2,3,4,5,6-pentahydroxyhexyl]amino]methyl]azetidin-1-yl]ethanone] | 100 to 130 | 6.00 to 7.00 |
| COCc1cnc(N2CCC(CCCCOc3ccc(CC(=O)N4CC(CNC[C@H](O)[C@@H](O)[C@H](O)[C@H](O)CO)C4)c(F)c3)CC2)nc1 (racemic) [Example 84, 2-[2-fluoro-4-[4-[1-[5-(methoxymethyl)pyrimidin-2-yl]-4-piperidyl]butoxy]phenyl]-1-[3-[[[rac-(2S,3R,4R,5R)-2,3,4,5,6-pentahydroxyhexyl]amino]methyl]azetidin-1-yl]ethanone] | 100 to 130 | 6.00 to 7.00 |
| COCc1cnc(N2CCC(CCCCOc3cc(F)c(CC(=O)N4CC(CNC[C@H](O)[C@@H](O)[C@H](O)[C@H](O)CO)C4)c(F)c3)CC2)nc1 (racemic) [Example 85, 2-[2,6-difluoro-4-[4-[1-[5-(methoxymethyl)pyrimidin-2-yl]-4-piperidyl]butoxy]phenyl]-1-[3-[[[rac-(2S,3R,4R,5R)-2,3,4,5,6-pentahydroxyhexyl]amino]methyl]azetidin-1-yl]ethanone] | 100 to 130 | 6.00 to 7.00 |
| O=C(OCCC1CCN(c2ncc(Cl)cn2)CC1)c1ccc(CC(=O)N2CC(CNC[C@H](O)[C@@H](O)[C@H](O)[C@H](O)CO)C2)c(F)c1 (racemic) [Example 91, 2-[1-(5-chloropyrimidin-2-yl)-4-piperidyl]ethyl 3-fluoro-4-[2-oxo-2-[3-[[[rac-(2S,3R,4R,5R)-2,3,4,5,6-pentahydroxyhexyl]amino]methyl]azetidin-1-yl]ethyl]benzoate] | 100 to 130 | 5.00 to 6.00 |
| O=C(Cc1ccc(CC(=O)N2CC(CNC[C@H](O)[C@@H](O)[C@H](O)[C@H](O)CO)C2)c(F)c1)OCCC1CCN(c2ncc(Cl)cn2)CC1 (racemic) [Example 92, 2-[1-(5-chloropyrimidin-2-yl)-4-piperidyl]ethyl 2-[3-fluoro-4-[2-oxo-2-[3-[[[rac-(2S,3R,4R,5R)-2,3,4,5,6-pentahydroxyhexyl]amino]methyl]azetidin-1-yl]ethyl]phenyl]acetate] | 100 to 130 | 6.00 to 7.00 |
| O=C(OC[C@@H]1C[C@@H]1C1CCN(c2ncc(Cl)cn2)CC1)c1ccc(CC(=O)N2CC(CNC[C@H](O)[C@@H](O)[C@H](O)[C@H](O)CO)C2)c(F)c1 (racemic) [Example 95, (1R,2R)-2-[1-(5-chloropyrimidin-2-yl)-4-piperidyl]cyclopropyl]methyl 3-fluoro-4-[2-oxo-2-[3-[[[rac-(2S,3R,4R,5R)-2,3,4,5,6-pentahydroxyhexyl]amino]methyl]azetidin-1-yl]ethyl]benzoate] | 100 to 130 | 6.00 to 7.00 |
| CC1(OC(=O)N2CCC(CCCOc3ccc(CC(=O)N4CC(CNC[C@H](O)[C@@H](O)[C@H](O)[C@H](O)CO)C4)c(F)c3)CC2)CC1 (racemic) [Example 119, (1-methylcyclopropyl) 4-[3-[3-fluoro-4-[2-oxo-2-[3-[[[rac-(2S,3R,4R,5R)-2,3,4,5,6-pentahydroxyhexyl]amino]methyl]azetidin-1-yl]ethyl]phenoxy]propyl]piperidine-1-carboxylate] | 100 to 130 | 6.00 to 7.00 |
